Experimental data as given in patent publication US20050202010A1, “Method of treatment and bioassay involving macrophage migration inhibitory factor (MIF) as cardiac-derived myocardial depressant factor” (priority 2003, published 2005).

Experiments:
LPS stimulated monocytes = conditions: cited from earlier work
[1] = system: wild type mice challenged with LPS; experiment: Tissue MIF release (western, immunohistochemistry) after LPS challenge, Enbrel pre-treatment; format: in vivo, mouse
Description: Louis, Mo.) and sacrificed by CO2 asphyxiation and subsequent cervical dislocation. Uninjected mice were used as controls. The two anti-MIF antibodies (III.D.9 and XIV.15.5, gift of Cytokine PharmaSciences, Inc., King of Prussia, Pa.) and their isotype control (HB-49, gift from Cytokine PharmaSciences, Inc.) were injected (100 μg in […]) intraperitoneally 90 minutes before the LPS challenge in the echocardiogram studies. […]
Protein Extraction and Western Blotting. […] Protein concentration was quantified using the Bio-Rad Protein Assay (Hercules, Calif.) and 50 μg of protein diluted in Laemmeli sample buffer (Bio-Rad) was added in a 1:1 ratio to a final volume of 10 μl and resolved on a 12% SDS polyacrylamide gel under reducing conditions. Prestained SDS-PAGE standards (Kaleidoscope Broad range, Bio-Rad Laboratories, Inc., Hercules, Calif.) were run (10 μl/lane) with each gel in order to determine the approximate M.W. of detected bands. […] The membrane was then developed for 5 minutes with 5 ml of ECL reagents (SuperSignal West Pico, Pierce, Rockford, Ill.), and the resulting chemiluminescent reaction was detected by Kodak X-OMAT AR Film (Eastman Kodak Co., Rochester, N.Y.). […]

[2] = system: wild type mice challenged with LPS; experiment: Serum MIF levels (ELISA) after LPS challenge, Enbrel pre-treatment; format: in vivo, mouse; conditions: wild type mice pre-treated (60 minutes) with Enbrel, LPS 4 mg/kg
Description: Mice were injected intraperitoneally with 4 mg/kg E. coli 0111:B4 LPS (Sigma-Aldrich Corp., St. Louis, Mo.) and sacrificed by CO2 asphyxiation and subsequent cervical dislocation. Uninjected mice were used as controls. The two anti-MIF antibodies (III.D.9 and XIV.15.5, gift of Cytokine PharmaSciences, Inc., King of Prussia, Pa.) and their isotype control (HB-49, gift from Cytokine PharmaSciences, Inc.) were injected (100 μg in […]) intraperitoneally 90 minutes before the LPS challenge in the echocardiogram studies. […]
Determination of serum MIF levels. Sera from six mice were assayed for mouse MIF using the Chemikine™ Rat/Mouse macrophage inhibitory factor (MIF) EIA kit (Chemicon International, Inc., Temecula, Calif.) according to the manufacturer's instructions. Briefly, 5 μl of standards, samples, or reaction buffer (blank) were added to each well in duplicate. Diluted MIF-HRP antibody conjugate was added to each well (100 μl) and allowed to incubate for 2 hours at room temperature. Wells were then washed five times, and TMB substrate (100 μl) was allowed to incubate in the dark for 30 minutes at room temperature. The stop reagent was added to each well, gently mixed, and the ELISA was read on an ELISA plate reader (EL 312e Microplate Reader, Bio-Tek Instruments, Winooski, Vt.) at 450 nm (630 nm background) within 30 minutes of completion of the assay. […]

Compound	effect on MIF secretion (LPS stimulated monocytes)	further results
CCCN(CCC)S(=O)(=O)c1ccc(C(=O)O)cc1 [probenicide]	MIF secretion did not occur	–
COc1ccc(Cl)cc1C(=O)NCCc1ccc(S(=O)(=O)NC(=O)NC2CCCCC2)cc1 [glyburide]	MIF secretion did not occur	–
Enbrel®	–	tissue release of MIF after LPS challenge ([1]; Enbrel given just immediately prior to or after LPS instead of 90 minutes prior (data not shown)): occurred sporatically; release of MIF from cardiac, liver and spleen tissue after LPS challenge ([1]; wild type mice pre-treated with Enbrel, western and immunohistochemistry): did not occur at any time; Maximum serum MIF levels [2]: ~2.3 fold baseline; time of maximum serum MIF levels [2]: 24 h
C[C@H]1CCC/C=C/[C@@H]2C[C@H](O)C[C@H]2[C@H](O)/C=C/C(=O)O1 [brefelding A]	do not inhibit the secretion of MIF	–
CC[C@@]1([C@@H]2O[C@@H]([C@H]3O[C@@](O)(CO)[C@H](C)C[C@@H]3C)C[C@@H]2C)CC[C@H]([C@]2(C)CC[C@]3(C[C@H](O)[C@@H](C)[C@@H]([C@@H](C)[C@@H](OC)[C@H](C)C(=O)O)O3)O2)O1 [monensin]	do not inhibit the secretion of MIF	–
